Data on 13 compounds can be found in PMC7949037, “The allosteric inhibition of glycine transporter 2 by bioactive lipid analgesics is controlled by penetration into a deep lipid cavity” (The Journal of Biological Chemistry, 2021).

Data set [1] concerns the target T1, GlyT1 (Homo sapiens, UniProt P48067).
T1 construct: expressed in transfected cells
T1 sequence (P48067 1-706): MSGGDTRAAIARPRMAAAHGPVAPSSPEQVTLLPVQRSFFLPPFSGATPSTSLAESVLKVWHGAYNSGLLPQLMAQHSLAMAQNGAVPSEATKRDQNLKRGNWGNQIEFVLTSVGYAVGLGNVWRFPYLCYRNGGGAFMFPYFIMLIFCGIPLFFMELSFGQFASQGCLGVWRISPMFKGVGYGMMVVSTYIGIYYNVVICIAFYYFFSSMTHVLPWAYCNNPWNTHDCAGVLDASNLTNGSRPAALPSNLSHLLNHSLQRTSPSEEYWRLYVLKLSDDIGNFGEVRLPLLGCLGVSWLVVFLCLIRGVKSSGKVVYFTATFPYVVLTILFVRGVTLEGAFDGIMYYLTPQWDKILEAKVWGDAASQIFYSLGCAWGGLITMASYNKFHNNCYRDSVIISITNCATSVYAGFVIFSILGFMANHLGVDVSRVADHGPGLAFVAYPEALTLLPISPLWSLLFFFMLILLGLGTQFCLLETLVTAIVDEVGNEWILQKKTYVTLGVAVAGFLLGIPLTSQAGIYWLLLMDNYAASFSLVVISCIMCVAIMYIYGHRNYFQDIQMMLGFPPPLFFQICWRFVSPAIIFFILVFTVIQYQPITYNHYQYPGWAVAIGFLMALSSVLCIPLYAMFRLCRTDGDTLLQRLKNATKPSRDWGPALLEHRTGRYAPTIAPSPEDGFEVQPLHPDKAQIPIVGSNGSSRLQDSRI
Briefly: Selectivity test against GlyT1 transporter, two-electrode voltage clamp electrophysiology. Type of data set: cell-based. An excerpt: The lipid inhibitors described previously contain 18 carbon acyl tails with a cis-double bond in the Δ9 position (i.e., nine bonds from the amide linkage to the amino acid head group), and penetration of the lipid tails into the allosteric site appears to be a critical determinant of inhibitory activity. To investigate the effect of tail length on GlyT2 inhibitory activity, we synthesized D- and L-lysine–based inhibitors with truncated tails. Double bonds were maintained in the Δ9 position, and overall chain lengths were reduced to C16 or C14 (C16ω7-Lys and C14ω5-Lys, respectively). The chemical structures of these new lipids are shown in Figure 1, and their synthesis and characterization are described in the Supporting information section. Newly synthesized acyl lysine analogs were then tested against GlyT2 and also tested for selectivity by testing against the closely related GlyT1 transporter using two-electrode voltage clamp electrophysiology (see Table 1 for inhibitory data).
(§1) GlyT2 is electrogenic, allowing activation to be measured via the two-electrode voltage clamp technique. Oocytes were voltage clamped at −60 mV, and whole-cell currents generated by the substrate were recorded with a Geneclamp 500 amplifier (Axon Instruments), digitized by a Powerlab 2/20 chart recorder (ADInstruments). LabChart version 8 software (ADInstruments, Axon Instruments) was used to visualize and process current traces. Recordings were performed in frog Ringer's solution. Oocytes were placed in an oval-shaped bath with a volume of 0.3 ml, with laminar flow around the oocyte at a rate of 12 ml min^−1 under gravity feed.
(§2) Each of the synthesized acyl-lysine compounds were first tested for their inhibitory activity by coapplying the analogs with 30 μM glycine and assessing their ability to reduce glycine transport currents. Increasing concentrations of each acyl-lysine inhibitor were applied to generate concentration response curves, from which IC50 values and percent maximal inhibition values were calculated.
Background: Two-electrode voltage clamp is typically applied to oocytes expressing channels or transporters.

The target in data set [2] is T2, human glycine transporter 2 (GlyT2 or SLC6A5) (Homo sapiens, UniProt Q9Y345).
T2 construct: expressed in transfected cells; host or cells: Xenopus laevis oocytes injected with cRNA
T2 sequence (Q9Y345 1-797): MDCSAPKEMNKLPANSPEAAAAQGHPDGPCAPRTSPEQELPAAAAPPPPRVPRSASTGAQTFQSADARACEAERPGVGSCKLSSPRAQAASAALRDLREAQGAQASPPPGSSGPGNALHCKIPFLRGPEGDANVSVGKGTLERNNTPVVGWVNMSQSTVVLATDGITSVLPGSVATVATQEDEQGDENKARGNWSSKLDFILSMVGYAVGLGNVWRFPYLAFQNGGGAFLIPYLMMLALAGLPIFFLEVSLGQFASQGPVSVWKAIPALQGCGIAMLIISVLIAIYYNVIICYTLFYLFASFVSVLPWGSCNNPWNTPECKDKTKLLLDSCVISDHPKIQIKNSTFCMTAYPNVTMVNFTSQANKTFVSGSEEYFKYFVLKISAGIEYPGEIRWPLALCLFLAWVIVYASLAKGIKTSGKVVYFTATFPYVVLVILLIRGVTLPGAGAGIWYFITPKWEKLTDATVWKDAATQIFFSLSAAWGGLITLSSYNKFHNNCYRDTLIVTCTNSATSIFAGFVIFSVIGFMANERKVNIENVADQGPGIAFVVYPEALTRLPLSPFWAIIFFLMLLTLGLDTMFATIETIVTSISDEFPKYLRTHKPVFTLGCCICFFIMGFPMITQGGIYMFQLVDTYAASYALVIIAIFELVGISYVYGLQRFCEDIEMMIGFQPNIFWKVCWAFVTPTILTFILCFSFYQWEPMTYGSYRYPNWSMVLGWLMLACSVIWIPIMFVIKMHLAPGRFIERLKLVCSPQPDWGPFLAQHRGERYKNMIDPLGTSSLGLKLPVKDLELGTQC
Briefly: Inhibition of glycine transport currents, two-electrode voltage clamp in oocytes expressing WT GlyT2. The class given is cell-based. To be noted: for % Maximal inhibition / IC50: GlyT2; for IC50: 30 μM glycine, 95% confidence interval in brackets; for Fold less potent than the corresponding L-isomer: GlyT2 IC50, D-isomer versus L-isomer. On the procedure: All N-acyl amino acids were synthesized as previously described ([13]). See Supporting Information for full details. Stock solutions of 10 mg ml^−1 of N-acyl amino acids were dissolved in dimethyl sulfoxide and diluted in frog Ringer's solution (96 mM NaCl, 2 mM KCl, 1 mM MgCl2, 1.8 mM CaCl2, 5 mM Hepes, pH 7.5) to desired concentrations. Final solutions contained 0.0025% dimethyl sulfoxide, a concentration that had no effect on transporter or receptor function.
Human GlyT2a WT complementary DNA was subcloned into the plasmid oocyte transcription vector. The amplified GlyT2/plasmid oocyte transcription vector product was then transformed in Escherichia coli cells and subsequently purified using the PureLink Quick Plasmid Miniprep Kit (Invitrogen by Life Technologies) and sequenced by the Australian Genome Research Facility (Sydney, Australia). The purified plasmid DNA was linearized via the restriction enzyme, SpeI (New England Biolabs [Genesearch]) for GlyT2a. Complementary RNAs were synthesized using the mMESAGE mMACHINE T7 kit (Ambion).
All work involving the use of animals was performed in accordance with the Australian Code of Practice for the Care and Use of Animals for Scientific Purposes. […] Stage V oocytes were isolated from the lobe via digestion with 2 mg ml^−1 collagenase A (Boehringer) at 26 °C for 1 h, and 20 ng of cRNA encoding GlyT2 was injected into each oocyte cytoplasm (Drummond Nanoinject; Drummond Scientific Co). The oocytes were then stored in frog Ringer's solution (96 mM NaCl, 2 mM KCl, 1 mM MgCl2, 1.8 mM CaCl2, 5 mM Hepes, pH 7.5), which was supplemented with 2.5 mM sodium pyruvate, 0.5 mM theophylline, 50 μg/ml gentamicin and […] tetracycline. The oocytes were stored at 18 °C for 3 to 5 days, until transporter expression was adequate for measurement using the two-electrode voltage clamp technique. Adequate transporter expression was defined as a ≥30 nA current following application of the glycine EC50.
as §1, §2

The subject of the next data set is GlyT2 Y550L. Details: method as in PMID 31621581. To be noted: mutagenesis data; cited from earlier work.
Data set [3] addresses T1, GlyT1. Also on record: method as in Mostyn et al., 2019 ([6]). To be noted: previously published data, ref Mostyn et al., 2019 ([6]), cited from earlier work.
Another data set has as its system GlyT2 W563L. Also on record: method as in PMID 31621581. To be noted: mutagenesis data; cited from earlier work.
The conditions of data set [4]: cited from earlier work.
For data set [5] the following is noted: cited from earlier work. The source holds these as a separate data set.
Data set [6] concerns the target T2, human glycine transporter 2 (GlyT2 or SLC6A5). To be noted: cited from earlier work; for % Maximal inhibition / IC50: previously published data, ref Mostyn et al., 2019 ([6]); for GlyT2 inhibitory activity in words: D-configuration head group.
The test system of data set [7] is rat model of neuropathic pain. To be noted: cited from earlier work.
A further data set relates to GlyT2. To be noted: most potent small molecule GlyT2 inhibitor to date, reference not given; cited from earlier work.

Like-named read-outs stand apart in the source and are kept apart here. Marks after values point to notes of the source that are not given here.

`CCCC/C=C\CCCCCCCC(=O)N[C@H](CCCCN)C(=O)O` [C14ω5-D-Lys]: the figures for the IC50 (against GlyT1 [1] (D-Head group stereochemistry); in data set [2] (D-Head group stereochemistry)) were over 3000 nM and 1380 nM, respectively. In addition, the “% Maximal inhibition” value in data set [2] (D-Head group stereochemistry) was determined as 79.7 ± 3.6%.

On to `CCCCC=CCCCCCCCC(=O)NC(CCCCN)C(=O)O` [C14ω5-L-Lys], for which the IC50 (usually the concentration that inhibits the measured activity by half) at GlyT1 [1] (L-Head group stereochemistry) is over 3000 nM. In [2] (L-Head group stereochemistry), the “% Maximal inhibition” value is recorded as 96.2 ± 7.3% and the IC50 turned out to be 703 nM.

On to `CCC=CCCCCCCCCCCCC(=O)NC(CCCCN)C(=O)O` [C16ω3-D-Lys], for which the IC50 on GlyT1 [1] (D-Head group stereochemistry) was over 3000 nM; in data set [2] (D-Head group stereochemistry) it was 699 nM. For the same compound, in data set [2] (D-Head group stereochemistry), the “% Maximal inhibition” value amounted to 91.8 ± 8.6%. The “Fold less potent than the corresponding L-isomer” value in data set [2] stood at 65 fold.

Consider `CCC=CCCCCCCCCCCCC(=O)NC(CCCCN)C(=O)O` [C16ω3-L-Lys], for which, on GlyT1 [1] (L-Head group stereochemistry), the IC50 is over 3000 nM. In data set [2] (L-Head group stereochemistry), the “% Maximal inhibition” value was found to be 94.9 ± 1.6% and the IC50 was found to be 10.8 nM.

Compound `CCCCCC/C=C\CCCCCCCC(=O)N[C@H](CCCCN)C(=O)O` [C16ω7-D-Lys] came in with an IC50 against GlyT1 [1] (D-Head group stereochemistry) of over 3000 nM. In addition, in [2] (D-Head group stereochemistry), the “% Maximal inhibition” value was 96.2 ± 2.1% and the IC50 worked out at 602 nM. In addition, in data set [2] (GlyT2 IC50), the “Fold reduced potency relative to C18ω9-D-Lys” value is listed as 12 fold. Moreover, in data set [2], the “Fold less potent than the corresponding L-isomer” value is reported as “ninefold”.

In the case of `CCCCCCC=CCCCCCCCC(=O)NC(CCCCN)C(=O)O` [C16ω7-L-Lys], the IC50 at GlyT1 [1] (L-Head group stereochemistry) was over 3000 nM. In addition, in data set [2] (L-Head group stereochemistry), the “% Maximal inhibition” value was found to be 90.2 ± 2.1% and the IC50 came to 66.6 nM.

At GlyT1 [1] (D-Head group stereochemistry), `CCCCC=CCCCCCCCCCCCC(=O)NC(CCCCN)C(=O)O` [C18ω5-D-Lys] returned an IC50 of over 3000 nM. Also, in data set [2] (D-Head group stereochemistry), the “% Maximal inhibition” value is 87.6 ± 3.7% and the 50% inhibitory concentration (IC50) worked out at 64.9 nM.

For the compound `CCCCC=CCCCCCCCCCCCC(=O)NC(CCCCN)C(=O)O` [C18ω5-L-Lys], the IC50 on GlyT1 [1] (L-Head group stereochemistry) is over 3000 nM; in [2] (L-Head group stereochemistry) it was 67.5 nM. The “% Maximal inhibition” value in [2] (L-Head group stereochemistry) was determined as 81.3 ± 5.1%.

In the case of `CCCCCCCC/C=C\CCCCCCCC(=O)N[C@H](CCCCN)C(=O)O` [C18ω9-D-Lys, oleoyl D-lysine], the “Inhibition of GlyT2 Y550L mutant” value with GlyT2 Y550L was “not inhibited”. Moreover, at GlyT1 [3] (D-Head group stereochemistry), the IC50 is over 3000 nM. In the data set on GlyT2 W563L, the “Inhibition of GlyT2 W563L mutant” value is reported as “not inhibited”. Moreover, the Metabolic stability entry in [4] is recorded as “metabolically stable”. Moreover, in data set [5], the Blood-brain barrier permeability entry is “blood–brain barrier permeable”. Also, in [6] (D-Head group stereochemistry), the “% Maximal inhibition” value is 91.0 ^a % and the IC50 was 0.0483 µM. Further, the “GlyT2 inhibitory activity in words” value in data set [6] is recorded as “retains potency”. In data set [7], the Analgesia result is “produces analgesia” and the Side effects result is recorded as “minimal side effects”.

As for `CCCCCCCCC=CCCCCCCCC(=O)NC(Cc1c[nH]c2ccccc12)C(=O)O` [C18ω9-D-Trp], the IC50 at GlyT1 [3] (D-Head group stereochemistry) was over 10000 nM; in data set [6] (D-Head group stereochemistry, μM) it was over 10 µM. Besides, the “% Maximal inhibition” value in data set [6] (D-Head group stereochemistry) is given as 14.2 ^a %. Further, the “GlyT2 inhibitory activity in words” value in [6] was “inactive”.

In the case of `CCCCCCCC/C=C\CCCCCCCC(=O)N[C@@H](CCCCN)C(=O)O` [C18ω9-L-Lys, oleoyl-L-lysine], in the data set on GlyT2 Y550L, the “Inhibition of GlyT2 Y550L mutant” value was “not inhibited”. Moreover, the IC50 on GlyT1 [3] (L-Head group stereochemistry) is over 3000 nM. Further, in the data set on GlyT2 W563L, the “Inhibition of GlyT2 W563L mutant” value is “not inhibited”. For the same compound, in data set [6] (L-Head group stereochemistry), the “% Maximal inhibition” value is listed as 86.8 ^a % and the IC50 is 0.0255 µM.

As for `CCCCCCCCC=CCCCCCCCC(=O)NC(Cc1c[nH]c2ccccc12)C(=O)O` [C18ω9-L-Trp], the IC50 on GlyT1 [3] (L-Head group stereochemistry) is over 10000 nM. In data set [6] (L-Head group stereochemistry), the “% Maximal inhibition” value is 86.2 ^a % and the IC50 was 0.0546 µM.

Consider `COc1cc(C(=O)NCC2(N(C)C)CCCC2)cc(OC)c1OCc1ccccc1` [ORG25543], for which the IC50 in the data set with GlyT2 was 16 nM.
